{"source": "patent US10175256B2", "about": "“Compositions and methods utilizing lysophosphatidylcholine scaffolds” (National University Of Singapore, priority 2013, dated 2019)", "key": {"[1]": {"target": "T1, Mfsd2a (Mus musculus, UniProt Q9DA75)", "T1 sequence (Q9DA75 1-534)": "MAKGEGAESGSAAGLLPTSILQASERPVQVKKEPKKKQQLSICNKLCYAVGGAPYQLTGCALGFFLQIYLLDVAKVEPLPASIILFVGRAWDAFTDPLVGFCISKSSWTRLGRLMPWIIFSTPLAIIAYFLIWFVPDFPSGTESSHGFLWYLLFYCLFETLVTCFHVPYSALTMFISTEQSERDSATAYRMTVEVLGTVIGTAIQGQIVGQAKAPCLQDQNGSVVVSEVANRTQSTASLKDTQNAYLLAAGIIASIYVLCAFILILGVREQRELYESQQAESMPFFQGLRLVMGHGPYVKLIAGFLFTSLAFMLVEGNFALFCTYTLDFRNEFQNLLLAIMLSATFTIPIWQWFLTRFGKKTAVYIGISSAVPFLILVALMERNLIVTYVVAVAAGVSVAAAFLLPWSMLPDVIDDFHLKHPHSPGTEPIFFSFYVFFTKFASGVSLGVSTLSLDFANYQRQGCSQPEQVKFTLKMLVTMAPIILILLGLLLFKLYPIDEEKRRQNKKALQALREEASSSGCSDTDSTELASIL", "test": "In vivo transport of radiolabeled, fluorescent LPCs and unesterified DHA in Mfsd2a KO and wild-type mice", "design": "from tissue; host or cells: living mice; brain (blood-brain barrier endothelium), liver, heart; fetal brain", "conditions": "300 μg fluorescent LPC/BSA complex i.v.", "method": "Male and female mice of age of 6-8 weeks were IV injected with 75 μl of 20 mM radiolabeled LPC-[…], 100 μl of 10 mM LPC-[^14C]DHA/BSA complex or 82 μl of 12.2 mM [^14C]DHA/BSA complex in a total volume of 150 μl of phosphate-buffered saline. At 2 hours post injection, mice were anesthetized and perfused for 5 mins with PBS containing 0.5% BSA in order to remove blood and lipid tracer bound to the brain vasculature. Tissues were harvested for lipid extraction. For lipid extraction, tissues were weighed and similar amounts of tissues were homogenized in chloroform/methanol. Lipids from the organic phase were mixed with scintillant and scintillation counted. Similar experiments were also performed with an injection of 300 μg NBD-LPC/BSA or 300 μg TopFluor-LPC/BSA complex per mouse. In this experiment, mice were perfused for 5 mins with PBS followed 15 mins perfusion with 4% paraformaldehyde (PFA) for tissue fixation. Brain sections of WT and KO with a thickness of 40 μm were prepared and scanned using green fluorescence mode in Typhoon FLA 9000 scanner (Agilent). NBD-LPC accumulation was expressed as fluorescence of each section per its area. Dietary DHA transport from mother to fetus was also measured using [^14C]DHA/BSA complex. Pregnant females at e18.5 was gavaged with bolus of [^14C]DHA/BSA complex (200 μl of 10 mM [^14C]DHA/BSA/mouse). Brain of fetuses were collected 20 hours post-gavage and weighed. Lipid extraction and radioactivity were performed as described above."}, "[2]": {"target": "T2, mouse Mfsd2a (Mus musculus, UniProt Q9DA75)", "T2 construct": "expressed in transfected cells; host or cells: HEK293", "T2 sequence (Q9DA75 1-534)": "T1 sequence (Q9DA75 1-534)", "test": "TLC analysis of phospholipids (bio-incorporation of LPC into PC)", "format": "cell-based", "conditions": "HEK293 cells, 50 μM, TLC", "method": "HEK293 cells overexpressing with pcDNA3.1Mfsd2a (WT), pcDNA3.1Mfsd2aD92A (D92A), pcDNA3.1Mfsd2aD96A, or pcDNA3.1 (mock) plasmids or human Mfsd2a (in Sport6 plasmid) were washed once with serum-free DMEM medium before incubation with 50 μM radiolabeled LPC [^14C]oleate, LPC [^14C]DHA or with 50 μM TopFluor-LPC and NBD-LPC. Lipids were extracted twice with HIP buffer for 30 mins. Lipids were dried with nitrogen stream and reconstituted in chloroform and spotted on TLC plates (Milipore). Solvent for phospholipid separation was chloroform/methanol/ammonia solution (25%) (50:25:6, per volume). TLC plates of radiolabeled phospholipids were dried for 30 mins and exposed overnight to Phosphorscreens and scanned with Typhoon FLA 9000 scanner (Agilent). TLC plates of fluorescent phospholipids were scanned with Typhoon FLA 9000 scanner and quantified using Imagequant software."}, "[3]": {"target": "T2, mouse Mfsd2a", "test": "In vitro transport (uptake) of radiolabeled and fluorescent LPCs in HEK293 cells overexpressing Mfsd2a", "format": "cell-based", "conditions": "HEK293 cells; vs mock, D92A, D96A", "method": "Uptake assays of radiolabeled LPCs or fluorescent LPCs were tested using HEK293 cells overexpressing Mfsd2a and mutants constructs. Briefly, HEK293 cells at 90-95% confluency were transfected using LIPOFECTAMINE 2000 (Invitrogen) with pcDNA3.1Mfsd2a (WT), pcDNA3.1Mfsd2aD92A (D92A), pcDNA3.1Mfsd2aD96A (D96A), or pcDNA3.1 (mock) plasmids. Uptake assays were performed after 24 hours of transfections. Prior to ligand incubation, HEK293 transfected cells were washed with serum-free DMEM before assays. For concentration and time dependent assays, radiolabeled LPCs were diluted in pre-warmed DMEM media. For sodium dependent assay, radiolabeled LPCs were diluted in transport buffer (5 mM KCl, 10 mM Hepes, pH 7.4) with 150 mM NaCl or 150 mM choline chloride. For sodium concentration dependent assays, any reductions in the concentration of NaCl were replaced by choline chloride in order to maintain a constant cation molarity of 150 mM. All assays were performed in 12 well-plates with triplicates and at 37° C."}}, "note": "Entries after “also recorded” stand apart in the source; their conditions may differ.", "data": [{"smiles": "C[N+](C)(C)CCOP(=O)([O-])OC[C@H](O)COC(=O)CCCCCCCCCCCNc1ccc([N+](=O)[O-])c2nonc12", "note": "[NBD-LPC]", "values": [{"measurement": "brain uptake (fluorescence of brain sections) in KO compared with wild-type", "setting": "[1]", "result": "significantly reduced"}, {"measurement": "bio-incorporation of fluorescent LPC into phospholipids (PC)", "setting": "[2]", "result": "bio-incorporated into membrane phospholipids"}, {"measurement": "uptake/transport of fluorescent lysolipid by cells expressing wild-type Mfsd2a", "setting": "[3]", "result": "transported by Mfsd2a; also recorded: significantly enhanced uptake activity"}]}]}
